The nature of the data set: Stability of polymorph Form II of the besylate salt. The data set is classed as physicochemical. The settings on record: exemplary Form II polymorph, solid form. The method, then: In some embodiments, Form II of the besylate salt of compound 101 (2,4-Dichloro-N-[3,5-dichloro-4-(quinolin-3-yloxy)-phenyl]-benzenesulfonamide benzenesulfonate salt) is used. […] In some embodiments, the Form II polymorph can have a melting point between about 230 and 240° C. […] For example, particular Form II polymorphs can have major X-ray powder diffraction pattern peaks at 15, 19, 20.5, 23.5, 24.5, 25, 26.5, 29.5 and 30.5° 2θ using Cu Kα radiation. In certain embodiments, the Form II polymorph can have major X-ray powder diffraction pattern peaks at one, two, three, four, five, six, seven or eight of the X-ray powder diffraction pattern peaks at 15, 19, 20.5, 23.5, 24.5, 25, 26.5, 29.5 and 30.5° 2θ using Cu Kα radiation. In certain embodiments, the Form II polymorph of the invention can have both a melting point between about 230 and 240° C. and major X-ray powder diffraction pattern peaks at one, two, three, four, five, six, seven or eight of the X-ray powder diffraction pattern peaks at 15, 19, 20.5, 23.5, 24.5, 25, 26.5, 29.5 and 30.5° 2θ using Cu Kα radiation. In further embodiments, the Form II polymorph can have major infrared absorbance peaks at one, two, three, four, or five of the infrared absorbance peaks at 1573, 1469, 1459, 912, and 859 cm^−1.

The structures appear in SMILES notation.

These results are taken from patent publication US20110034380A1, “COMBINATION OF A SELECTIVE PPAR-GAMMA MODULATOR AND AN INCRETIN FOR THE TREATMENT OF DIABETES AND OBESITY” (priority 2009, published 2011).

Take `O=S(=O)(Nc1cc(Cl)c(Oc2cnc3ccccc3c2)c(Cl)c1)c1ccc(Cl)cc1Cl.O=S(=O)(O)c1ccccc1` [2,4-Dichloro-N-[3,5-dichloro-4-(quinolin-3-yloxy)-phenyl]-benzenesulfonamide benzenesulfonate salt]: the “stability of the polymorph” value is reported as “surprising stability”.
